Reference: patent publication US8133912B2 (priority 2006, dated 2012)

How the values were obtained:
[1] = resolvability (solubility) in ultrapure water; conditions: 5 mg scale in 50 μL ultrapure water, stirred
mouse = conditions: in vivo, po; cited from earlier work
cell growth = format: cell-based

| Substance | resolvability to water [1] | LD50 (50% Lethal dose) (mouse) [mg/kg] | IC50 (50% Growth inhibition) (cell growth) [µg/mL] |
| --- | --- | --- | --- |
| methyl aquocobyrinic acid heptamethyl ester perchlorate [hydrophobic vitamin B12] | not completely dissolved |  |  |
| methyl aquocobyrinic acid sodium perchlorate | No precipitate occurred |  |  |
| tetramethyl arsenic [TeMA] |  | 900 | 8000 |
